Experiment [1] concerns A2780 ovarian cancer cells. The experiment in a line: Formazan dye (MTT) in-vitro cell growth assay, A2780. The experiment is classed as cell-based. As to conditions: for in vitro growth inhibition (in words): A2780, MTT assay, single drug. On the procedure:
Effect of FAS and ErbB inhibition on A2780 ovarian cancer cells (OCC). […] Cells were grown for three days in the presence of vehicle (0.1% DMSO) or synthetic inhibitor before cell number was estimated. Data in the charts represent means +/−SD of triplicate measurements.
Cells were plated at 0.5−5×10^3/well in 96-well plates. After adhesion, media ±drugs alone or in combination were added. Cell numbers were estimated after 3-5 days by using a colorimetric formazan dye assay (Biomedica, Vienna, Austria). Results (mean±SD, n=3) were expressed in percent of untreated (solvent) control. Statistical analysis of data from drug combination treatment experiments was performed using one-factorial ANOVA followed by Scheffe-test.
(§1) Yellow MTT (3-(4,5-Dimethylthiazol-2-yl)-2,5-diphenyltetrazolium bromide, a tetrazole) is reduced to purple formazan in the mitochondria of living cells (see Mosmann, T., J. Immunol. Methods, 65(1-2): 55-63, 1983).
Background: Tetrazolium assays rely on reduction of a dye to a coloured formazan, in cell work by metabolically active cells.

Experiment [2] concerns SKOV3 ovarian cancer cells. The experiment in a line: Formazan dye (MTT) in-vitro cell growth assay, SKOV3. The experiment is classed as cell-based. To be noted: for in vitro growth inhibition (in words): MTT assay, single drug. The procedure: Cells were plated at 0.5−5×10^3/well in 96-well plates. After adhesion, media ±drugs alone or in combination were added. Cell numbers were estimated after 3-5 days by using a colorimetric formazan dye assay (Biomedica, Vienna, Austria). […] Statistical analysis of data from drug combination treatment experiments was performed using one-factorial ANOVA followed by Scheffe-test.
as §1

The test system of experiment [3] is FASN mRNA. Put plainly: FASN mRNA expression by qRT-PCR in A2780 cells. As to conditions: b102: within three days, pelitinib at doses as low as 3 μM. The experiment is classed as cell-based, human. The text has this:
(§2) RNA was extracted from the cells using TRI-REAGENT™ (Molecular Research Center, Cincinnati, Ohio) and subjected to reverse transcription—polymerase chain reaction (“RT-PCR”) using the TITAN ONE TUBE RT-PCR KIT™ system (Hoffmann-La Roche). Primers were: EGFR: 5′-[…]-3′ (SEQ ID NO:1) (forward, E1S) 5′-[…]-3′ (SEQ ID NO:2) (reverse, E1A); ErbB-2: 5′-[…]-3′ (SEQ ID NO:3) (forward, E2S2), 5′-[…]-3′ (SEQ ID NO:4) (reverse, E2A2); GAPDH: 5′-[…]-3′ (SEQ ID NO:5) (forward, GAPDH3S), 5′-[…]-3′ (SEQ ID NO:6) (reverse, GAPDH3A). Conditions for reverse transcription and amplification of the EGFR coding sequence were: 50° C., 30 minutes; 94° C., 2 minutes; 10 cycles (94° C., 30 seconds; 64.9° C., 30 seconds; 68° C., 90 seconds); 30 cycles (94° C., 30 seconds; 64.9° C., 30 seconds; 68° C., 90 seconds +5 seconds autoextension) and 68° C., 7 minutes. Conditions for ErbB2 and GAPDH were: 50° C., 30 minutes; 94° C., 2 minutes; 10 cycles (94° C., 30 seconds; 51° C., 30 seconds; 68° C., 45 seconds); 25 cycles (94° C., 30 seconds; 51° C., 30 seconds; 68° C., 45 seconds +5 seconds autoextension) and 68° C., 7 minutes. DNA products had the following sizes: EGFR: 1452 bp, ErbB2: 900 bp, GAPDH: 488 bp. Fragments were electrophoresed and stained with ethidium bromide.
(§3) Quantitative RT-PCR (“qRT-PCR”) was performed in the ABI PRISM 7000™ Sequence Detector (Applied Biosystems, Foster City, Calif.) using human EGFR, ErbB2, and FASN TaqMan® Gene Expression Assay systems (Applied Biosystems; Assay IDs: Hs00193306_m1, Hs00170433_m1, Hs00188012_m1) according to the manufacturer's instructions. β-actin and GAPDH (VIC™ and FAM labeled pre-developed TaqMan® Assay reagents, Applied Biosystems) were used as endogenous controls. EGFR, ErbB2, and FASN mRNA expression were calculated as described previously (Grunt, ibid).
(Real-time PCR tracks product formation cycle by cycle.)

Experiment [4] deals with FASN protein. The experiment in a line: FASN protein level by Western blotting in A2780 cells. The experiment is classed as cell-based. As to conditions: b102: within three days, pelitinib at doses as low as 3 μM.
Experiment [5] has as its system EGFR mRNA. The experiment in a line: EGFR mRNA by RT-PCR and qRT-PCR in A2780 cells. The experiment is classed as cell-based, human. The procedure: RNA was extracted from the cells using TRI-REAGENT™ (Molecular Research Center, Cincinnati, Ohio) and subjected to reverse transcription—polymerase chain reaction (“RT-PCR”) using the TITAN ONE TUBE RT-PCR KIT™ system (Hoffmann-La Roche). […] Conditions for ErbB2 and GAPDH were: 50° C., 30 minutes; 94° C., 2 minutes; 10 cycles (94° C., 30 seconds; 51° C., 30 seconds; 68° C., 45 seconds); 25 cycles (94° C., 30 seconds; 51° C., 30 seconds; 68° C., 45 seconds +5 seconds autoextension) and 68° C., 7 minutes. […] Fragments were electrophoresed and stained with ethidium bromide.
as §3

Experiment [6] concerns EGFR protein. The experiment in a line: EGFR protein and tyrosine phosphorylation by Western blot in A2780 cells. The experiment is classed as cell-based. For orientation: In western blotting, separated proteins are transferred to a membrane and probed.
The subject of experiment [7] is ErbB2 mRNA. The experiment in a line: ErbB2 mRNA by RT-PCR and qRT-PCR in A2780 cells. The experiment is classed as cell-based, human.
Excerpt: as §2, §3

Experiment [8] concerns ErbB2 protein. The experiment in a line: Total and phosphorylated ErbB2 protein by Western blot in A2780 cells. It counts as cell-based. The procedure:
(§4) Cells plated in culture media containing 5% fetal calf serum at a density of 2.6×10^5 (SKOV3) or 6×10^5 (A2780) in 60 mm dishes (Corning, Corning, N.Y.) were treated with FASN inhibitor C75, with small-molecule ErbB RTK inhibitors (RTKIs), with the MEK1/2 antagonist U0126 or with the PI3K inhibitor LY294002 for the indicated times and at various concentrations. In some experiments cells were stimulated for 5 or 10 min with 100 ng/ml EGF (Sigma) before lysis in RIPA buffer (Grunt et al., Biochem Biophys Res Commun 329:1253-1259, 2005). Proteins (20 μg/lane) were subjected to SDS-PAGE, blotted onto PVDF membranes and immunostained (see Grunt, ibid) using the following antibodies: 2 μg/ml goat anti-pEGFR(Tyr1173) (sc-12351), 1 μg/ml rabbit anti-ErbB2 (C-18) (sc-284), 1 μg/ml rabbit anti-pErbB2(Tyr1248) (sc-12352-R) (all from Santa Cruz Biotechnology Inc., Santa Cruz, Calif.), rabbit anti-EGFR 1:1,000 (2232), rabbit anti-AKT 1:1,000 (9272), rabbit anti-pAKT(Ser473) 1:1,000 (9271), rabbit anti-pAKT(Thr308) 1:1,000 (9275), rabbit anti-pERK1/2(Thr202/Tyr204) 1:1,000 (9101) (all from Cell Signaling Technology), rabbit anti-ERK1/2 1:3,000 (06-182, Upstate Biotechnology Inc., Lake Placid, N.Y.), 0.5 μg/ml mouse monoclonal anti-FASN (610963, BD Biosciences, San Jose, Calif.), or 0.67 μg/ml goat anti-human actin (1-19, sc-1616, Santa Cruz Biotechnology). Secondary antibodies were peroxidase-tagged donkey-anti-rabbit IgG (V795A, Promega, Madison, Wis.) or donkey-anti-goat IgG (sc-2020, Santa Cruz Biotechnology) at 1:15,000, respectively, or chicken anti-mouse IgG (sc-2954, Santa Cruz Biotechnology) at 1:10,000. Detection was performed by enhanced chemiluminescence.

Experiment [9] deals with FASN mRNA. The experiment in a line: FASN mRNA levels in SKOV3 cells. The experiment is classed as cell-based, human.
Excerpt: RNA was extracted from the cells using TRI-REAGENT™ (Molecular Research Center, Cincinnati, Ohio) and subjected to reverse transcription—polymerase chain reaction (“RT-PCR”) using the TITAN ONE TUBE RT-PCR KIT™ system (Hoffmann-La Roche). Primers were: EGFR: 5′-[…]-3′ (SEQ ID NO:1) (forward, E1S) 5′-[…]-3′ (SEQ ID NO:2) (reverse, E1A); ErbB-2: 5′-[…]-3′ (SEQ ID NO:3) (forward, E2S2), 5′-[…]-3′ (SEQ ID NO:4) (reverse, E2A2); GAPDH: 5′-[…]-3′ (SEQ ID NO:5) (forward, GAPDH3S), 5′-[…]-3′ (SEQ ID NO:6) (reverse, GAPDH3A). Conditions for reverse transcription and amplification of the EGFR coding sequence were: 50° C., 30 minutes; 94° C., 2 minutes; 10 cycles (94° C., 30 seconds; 64.9° C., 30 seconds; 68° C., 90 seconds); 30 cycles (94° C., 30 seconds; 64.9° C., 30 seconds; 68° C., 90 seconds +5 seconds autoextension) and 68° C., 7 minutes. […]
as §3

The test system of experiment [10] is FASN protein. The experiment in a line: FASN protein levels by Western blotting in SKOV3 cells. It counts as cell-based. On the procedure:
as §4, with “Secondary antibodies were peroxidase-tagged donkey-anti-rabbit IgG (V795A, Promega, Madison, Wis.) or donkey-anti-goat IgG (sc-2020, Santa Cruz Biotechnology) at 1:15,000, respectively, or chicken anti-mouse IgG (sc-2954, Santa Cruz Biotechnology) at 1:10,000. Detection was performed by enhanced chemiluminescence.” left out

This note sets out measurements from US20090325877A1, “Combination Product of Receptor Tyrosine Kinase Inhibitor and Fatty Acid Synthase Inhibitor for Treating Cancer” (Wyeth, priority 2008, published 2009).

Where two headings read alike, the source gives them in different places.

As to `C=CC(=O)Nc1cc2c(Nc3ccc(F)c(Cl)c3)ncnc2cc1OCCCN1CCOCC1` [canertinib], the “in vitro growth inhibition (in words)” value in experiment [1] and in experiment [2] was “growth inhibitory activity” in each case. For the same molecule, in experiment [3], the “FASN mRNA expression, effect in words” value is recorded as “effect was also seen”. The “FASN protein expression, effect in words” value in experiment [4] is reported as “effect was also seen”. Further, the “EGFR mRNA, effect in words” value in [5] was “does not diminish”. The “EGFR total protein, effect in words” value in [6] was “does not diminish”. The “ErbB2 mRNA, effect in words” value in [7] is “fails to down-regulate”. Also, the “phosphorylated ErbB2 (pErbB2), effect in words” value in experiment [8] is given as “strongly diminishes”. In [8], the “total ErbB2 protein, effect in words” value was “slightly attenuates”.
In the case of `CCOc1cc2ncc(C#N)c(Nc3ccc(F)c(Cl)c3)c2cc1NC(=O)C=CCN(C)C` [EKB-569, 4-Dimethylamino-but-2-enoic acid [4-(3-chloro-4-fluoro-phenylamino)-3-cyano-7-ethoxy-quinolin-6-yl]-amide], the “in vitro growth inhibition (in words)” value in experiment [1] and in experiment [2] was “growth inhibitory activity” each time. Moreover, the IC50 in [1] (Homo sapiens, 72 h, A2780 OCC, each individual inhibitor, 50% reduction of cell growth, three days, n = 3-5, read-out: IC50 (μM) Mean +/− SD) was determined as 5.14 µM. For the same molecule, the “FASN mRNA expression, effect in words” value in [3] is “represses”; in [3] (listed as pelitinib) it was “abrogated”. Moreover, the “FASN protein expression, effect in words” value in [4] is on record as “represses”; in experiment [4] (listed as pelitinib), “abrogated”. Further, the “EGFR mRNA, effect in words” value in experiment [5] is on record as “weak dose-dependent repression”; in [5] (listed as pelitinib), “dose-dependent down-regulation”. For the same molecule, the “EGFR total protein, effect in words” value in experiment [6] is listed as “abolishes”; in [6] (listed as pelitinib), “dose-dependent down-regulation”. The “EGFR tyrosine phosphorylation (activity), effect in words” value in [6] is on record as “dose-dependent reduction”; in experiment [6] (listed as pelitinib) it was “completely abrogates”. Also, the results for the “ErbB2 mRNA, effect in words” value in experiment [7] and in [7] (listed as pelitinib) were “only weakly depresses” and “do not appear to be affected”, respectively. Also, the “phosphorylated ErbB2 (pErbB2), effect in words” value is listed as “abolishes” in experiment [8] and “abrogated” in experiment [8] (listed as pelitinib). For the same molecule, the figures for the “total ErbB2 protein, effect in words” value in experiment [8] and in [8] (listed as pelitinib) were “abolishes” and “abrogated”, respectively.
With `N#CC(=C(/N)Sc1ccccc1N)/C(C#N)=C(\N)Sc1ccccc1N` [U0126], the “FASN mRNA levels, effect in words” value in experiment [9] is given as “does not affect”. In experiment [10], the “FASN protein levels, effect in words” value was “does not affect”.
Turning to `C#Cc1cccc(Nc2ncnc3cc(OCCOC)c(OCCOC)cc23)c1` [erlotinib], the “in vitro growth inhibition (in words)” value in experiment [1] and in experiment [2] was “does not significantly inhibit growth” in each case. The “FASN mRNA expression, effect in words” value in [3] is reported as “effect was also seen”. Besides, in [4], the “FASN protein expression, effect in words” value is “effect was also seen”.

B1: matuzumab: Humanized mAb; EGFR (antibody, chains of the INN, looked up, V domains shown)
VH: QVQLVQSGAEVKKPGASVKVSCKASGYTFTSHWMHWVRQAPGQGLEWIGEFNPSNGRTNYNEKFKSKATMTVDTSTNTAYMELSSLRSEDTAVYYCASRDYDYDGRYFDYWGQGTLVTVSS
VL: DIQMTQSPSSLSASVGDRVTITCSASSSVTYMYWYQQKPGKAPKLLIYDTSNLASGVPSRFSGSGSGTDYTFTISSLQPEDIATYYCQQWSSHIFTFGQGTKVEIK
Turning to B1, in [2] (antibody alone at 20 μg/ml), the growth inhibition was roughly 10%.
